The target in the assay is T1, human apelin receptor (Homo sapiens, UniProt P35414).
T1 construct: host or cells: CHO cells
T1 sequence (P35414 1-380): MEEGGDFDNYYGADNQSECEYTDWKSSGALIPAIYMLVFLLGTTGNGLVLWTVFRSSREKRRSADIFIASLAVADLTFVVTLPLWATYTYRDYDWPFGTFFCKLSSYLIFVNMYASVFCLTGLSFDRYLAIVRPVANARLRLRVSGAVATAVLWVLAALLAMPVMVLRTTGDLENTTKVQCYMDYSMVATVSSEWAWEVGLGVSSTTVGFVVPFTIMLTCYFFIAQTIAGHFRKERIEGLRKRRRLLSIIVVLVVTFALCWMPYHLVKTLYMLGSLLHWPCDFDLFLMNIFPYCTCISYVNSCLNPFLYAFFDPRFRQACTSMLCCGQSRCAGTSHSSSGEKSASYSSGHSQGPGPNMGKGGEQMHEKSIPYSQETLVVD
In words: Measurement of apelin receptor agonist activity (cell-based assay determining the amount of intracellular cAMP). Conditions: CHO cells stably expressing the human apelin receptor, Forskolin 10 μM, 30 minutes, 100% efficacy = [Pyr1]-apelin-13 0.300 μM, concentration giving 50% efficacy. Here is the method: Measurement of Apelin Receptor Agonist Activity
The apelin receptor agonist activity of the compound represented by formula (I) or (II) of the present invention was measured by cell-based assay for determining the amount of intracellular cAMP.
CHO cells (DiscoveRx Corp.) stably expressing the human apelin receptor were inoculated to wells of a microtiter plate and cultured overnight at 37° C. under conditions of 5% CO2.
Each test compound and Forskolin were added to the wells at the same time. Specifically, the test compound dissolved in DMSO was diluted with a Forskolin-containing buffer [DMEM/F-12, HEPES, no phenol red (#11039, GIBCO)] to prepare a mixed solution containing the test compound at a final concentration of […] (common ratio: 3, serial dilution: 11), Forskolin at a final concentration of 10 μM, and DMSO at a final concentration of 0.3% v/v, which was then added to the wells (N═4).
After 30 minutes, the cells were lysed, and HitHunter cAMP XS+ Assay #90-0075L (DiscoveRx Corp.) was added to the cell lysate. The mixture was left overnight, and the resulting chemiluminescence signals were then detected using Analyst GT (Molecular Devices LLC.) to determine the amount of cAMP.
The amount of cAMP determined by the addition of a positive control [Pyr1]-apelin-13 (final concentration: 0.300 μM) and Forskolin (final concentration: 10 μM) at the same time was used as an index to define 100% efficacy. The amount of cAMP determined by the addition of Forskolin (final concentration: 10 μM) alone was used as an index to define 0% efficacy.
A dose response curve was prepared from the final concentration of the test compound and the determined amount of cAMP using Sigmaplot 12.0.

pEC50: −log10 of the molar value.

For orientation: pEC50 means the negative decadic logarithm of the EC50, by convention in mol/L. Higher therefore signals a low EC50. In turn, `COc1cccc(OC)c1-n1c(CN)nnc1-c1ccc(C)o1` [Example 70, 1-[4-(2,6-Dimethoxyphenyl)-5-(5-methylfuran-2-yl)-4H-1,2,4-triazol-3-yl]methanamine] had a pEC50 of 6.42. For `COc1cccc(OC)c1-n1c(Br)nnc1-c1ccc(C)o1` [Example 44, 3-Bromo-4-(2,6-dimethoxyphenyl)-5-(5-methylfuran-2-yl)-4H-1,2,4-triazole], the negative logarithm of the EC50 (pEC50) was 5.92. Take `COc1cccc(OC)c1-n1c(CNS(C)(=O)=O)nnc1-c1ccc(C)o1` [Example 71, N-{[4-(2,6-Dimethoxyphenyl)-5-(5-methylfuran-2-yl)-4H-1,2,4-triazol-3-yl]methyl}methanesulfonamide]: the pEC50 is 5.97.

For `COC(=O)C(Sc1nnc(-c2ccc(C)o2)n1-c1c(OC)cccc1OC)c1ccccn1` (racemic) [Example 89, Methyl {[4-(2,6-dimethoxyphenyl)-5-(5-methylfuran-2-yl)-4H-1,2,4-triazol-3-yl]sulfanyl}(pyridin-2-yl)acetate], the negative-log EC50 (pEC50) is 6.58.

As for `COc1cccc(OC)c1-n1c(/C=C/C(N)=O)nnc1-c1ccc(C)o1` [Example 19, (2E)-3-[4-(2,6-Dimethoxyphenyl)-5-(5-methylfuran-2-yl)-4H-1,2,4-triazol-3-yl]prop-2-enamide], the negative logarithm of the EC50 (pEC50) was 6.77. To `CCOC(=O)CCc1nnc(-c2ccc(C)o2)n1-c1c(OC)cccc1OC` [Example 12, Ethyl 3-[4-(2,6-dimethoxyphenyl)-5-(5-methylfuran-2-yl)-4H-1,2,4-triazol-3-yl]propanoate] belongs 6.15; to `COc1cccc(OC)c1-n1c(-c2ccccc2)nnc1-c1ccc(C)o1` [Example 57, 4-(2,6-Dimethoxyphenyl)-3-(5-methylfuran-2-yl)-5-phenyl-4H-1,2,4-triazole], 5.92.

On to `Cc1ccc(-c2nnc(SCC(=O)O)n2-c2c(Cl)cccc2Cl)o1` [Example 32, {[4-(2,6-Dichlorophenyl)-5-(5-methylfuran-2-yl)-4H-1,2,4-triazol-3-yl]sulfanyl}acetic acid], for which the pEC50 is 5.40.

In turn, `COc1cccc(OC)c1-n1c(/C=C/c2cc(=O)n3cc(C)ccc3n2)nnc1-c1ccc(C)o1` [Example 52, 2-{(E)-2-[4-(2,6-Dimethoxyphenyl)-5-(5-methylfuran-2-yl)-4H-1,2,4-triazol-3-yl]ethenyl}-7-methyl-4H-pyrido[1,2-a]pyrimidin-4-one] gave a pEC50 of 6.66. To `COc1cccc(OC)c1-n1c(CSc2nnc[nH]2)nnc1-c1ccc(C)o1` [Example 68, 4-(2,6-Dimethoxyphenyl)-3-(5-methylfuran-2-yl)-5-[(4H-1,2,4-triazol-3-ylsulfanyl)methyl]-4H-1,2,4-triazole] belongs 5.88. The figure for `COc1cccc(OC)c1-n1c(CNC(=O)c2ccc(C)cc2)nnc1-c1ccc(C)o1` [Example 99, N-{[4-(2,6-Dimethoxyphenyl)-5-(5-methylfuran-2-yl)-4H-1,2,4-triazol-3-yl]methyl}-4-methylbenzamide] is 6.47; for `COc1cccc(OC)c1-n1c(SCC(=O)O)nnc1-c1ccc(C)o1` [Example 5, {[4-(2,6-Dimethoxyphenyl)-5-(5-methylfuran-2-yl)-4H-1,2,4-triazol-3-yl]sulfanyl}acetic acid] it is 7.59; for `COc1cccc(OC)c1-n1c(SCC(=O)O)nnc1-c1ccoc1` [Example 62, {[4-(2,6-Dimethoxyphenyl)-5-(furan-3-yl)-4H-1,2,4-triazol-3-yl]sulfanyl}acetic acid] it is 6.09. As for `COc1cccc(OC)c1-n1c(SCc2ccc(C(N)=O)cc2)nnc1-c1ccc(C)o1` [Example 105, 4-({[4-(2,6-Dimethoxyphenyl)-5-(5-methylfuran-2-yl)-4H-1,2,4-triazol-3-yl]sulfanyl}methyl)benzamide], the negative-log EC50 (pEC50) was 5.92. Take `COc1cccc(OC)c1-n1c(SCC(=O)O)nnc1-c1cc(C)c(C)o1` [Example 63, {[4-(2,6-Dimethoxyphenyl)-5-(4,5-dimethylfuran-2-yl)-4H-1,2,4-triazol-3-yl]sulfanyl}acetic acid]: the pEC50 was 6.15.

For the molecule `COc1cccc(OC)c1-n1c(OCC(OC)OC)nnc1-c1ccc(C)o1` [Example 87, 3-(2,2-Dimethoxyethoxy)-4-(2,6-dimethoxyphenyl)-5-(5-methylfuran-2-yl)-4H-1,2,4-triazole], the pEC50 was 6.13.

`COc1cccc(OC)c1-n1c(CCC(C)=O)nnc1-c1ccc(C)o1` [Example 24, 4-[4-(2,6-Dimethoxyphenyl)-5-(5-methylfuran-2-yl)-4H-1,2,4-triazol-3-yl]butan-2-one] gave a pEC50 of 6.12. As for `COc1cccc(OC)c1-n1c(SCP(=O)(O)O)nnc1-c1ccc(C)o1` [Example 102, ({[4-(2,6-Dimethoxyphenyl)-5-(5-methylfuran-2-yl)-4H-1,2,4-triazol-3-yl]sulfanyl}methyl)phosphonic acid], the pEC50 is 6.99. This pEC50 lies 0.87 log units higher than the previous one.

With `COc1cccc(OC)c1-n1c(COCC(=O)O)nnc1-c1ccc(C)o1` [Example 67, {[4-(2,6-Dimethoxyphenyl)-5-(5-methylfuran-2-yl)-4H-1,2,4-triazol-3-yl]methoxy}acetic acid], the pEC50 was 6.11. The figure for `COC(=O)c1ccccc1CSc1nnc(-c2ccc(C)o2)n1-c1c(OC)cccc1OC` [Example 77, Methyl 2-({[4-(2,6-dimethoxyphenyl)-5-(5-methylfuran-2-yl)-4H-1,2,4-triazol-3-yl]sulfanyl}methyl)benzoate] is 6.25; for `COc1cccc(OC)c1-n1c(SCC2=NOC(=O)C2)nnc1-c1ccc(C)o1` [Example 103, 3-({[4-(2,6-Dimethoxyphenyl)-5-(5-methylfuran-2-yl)-4H-1,2,4-triazol-3-yl]sulfanyl}methyl)-1,2-oxazol-5(4H)-one] it is 7.34; for `COC(=O)c1cccc(-c2nnc(-c3ccc(C)o3)n2-c2c(OC)cccc2OC)c1` [Example 45, Methyl 3-[4-(2,6-dimethoxyphenyl)-5-(5-methylfuran-2-yl)-4H-1,2,4-triazol-3-yl]benzoate] it is 5.88.

Turning to `COc1cccc(OC)c1-n1c(SCc2cccc(C(N)=O)c2)nnc1-c1ccc(C)o1` [Example 106, 3-({[4-(2,6-Dimethoxyphenyl)-5-(5-methylfuran-2-yl)-4H-1,2,4-triazol-3-yl]sulfanyl}methyl)benzamide], the negative-log EC50 (pEC50) was 6.10.

On to `COc1cccc(OC)c1-n1c(SC(Cc2ccccc2)C(=O)O)nnc1-c1ccc(C)o1` (stereo not shown) [Example 39, 2-{[4-(2,6-Dimethoxyphenyl)-5-(5-methylfuran-2-yl)-4H-1,2,4-triazol-3-yl]sulfanyl}-3-phenylpropanoic acid], for which the negative-log EC50 (pEC50) was 7.96. Against the preceding molecule, the pEC50 is 1.86 log units higher. To `COc1cccc(OC)c1-n1c(-c2cccc(C(=O)O)c2)nnc1-c1ccc(C)o1` [Example 46, 3-[4-(2,6-Dimethoxyphenyl)-5-(5-methylfuran-2-yl)-4H-1,2,4-triazol-3-yl]benzoic acid] belongs 7.02; to `COc1cccc(OC)c1-n1c(SC(C(=O)O)C(C)C)nnc1-c1ccc(C)o1` (stereo not shown) [Example 43, 2-{[4-(2,6-Dimethoxyphenyl)-5-(5-methylfuran-2-yl)-4H-1,2,4-triazol-3-yl]sulfanyl}-3-methylbutanoic acid], 7.41; to `COc1cccc(OC)c1-n1c(SCc2ccccc2)nnc1-c1ccc(C)o1` [Example 40, 3-(Benzylsulfanyl)-4-(2,6-dimethoxyphenyl)-5-(5-methylfuran-2-yl)-4H-1,2,4-triazole], 5.95.

`COc1cccc(OC)c1-n1c(CO)nnc1-c1ccc(C)o1` [Example 7, [4-(2,6-Dimethoxyphenyl)-5-(5-methylfuran-2-yl)-4H-1,2,4-triazol-3-yl]methanol] showed a negative-log EC50 (pEC50) of 6.09. This pEC50 and that of the molecule before are within 0.2 log units of each other. The figure for `COc1cccc(OC)c1-n1c(CCC(=O)O)nnc1-c1ccc(C)o1` [Example 13, 3-[4-(2,6-Dimethoxyphenyl)-5-(5-methylfuran-2-yl)-4H-1,2,4-triazol-3-yl]propanoic acid] is 6.80; for `COc1cccc(OC)c1-n1c(-c2ccc(C)o2)nnc1S(C)(=O)=O` [Example 86, 4-(2,6-Dimethoxyphenyl)-3-(5-methylfuran-2-yl)-5-(methylsulfonyl)-4H-1,2,4-triazole] it is 5.69. The figure for `COc1cccc(OC)c1-n1c(/C=C/C(=O)N2C[C@H](O)C[C@H]2C(=O)O)nnc1-c1ccc(C)o1` [Example 92, (4R)-1-{(2E)-3-[4-(2,6-Dimethoxyphenyl)-5-(5-methylfuran-2-yl)-4H-1,2,4-triazol-3-yl]prop-2-enoyl}-4-hydroxy-L-proline] is 6.78.
